Peptide text beside a SMILES is read from it.
Molecular target: T1, human sweet taste receptor TAS1R2/TAS1R3 (Homo sapiens, UniProt Q7RTX0+Q8TE23)
T1 construct: expressed in transfected cells; host or cells: HEK293 Flp-In T-Rex cells; Gα15Gi3 and TAS1R2 constitutive, TAS1R3 tetracycline-inducible
T1 sequence (Q8TE23 20-839): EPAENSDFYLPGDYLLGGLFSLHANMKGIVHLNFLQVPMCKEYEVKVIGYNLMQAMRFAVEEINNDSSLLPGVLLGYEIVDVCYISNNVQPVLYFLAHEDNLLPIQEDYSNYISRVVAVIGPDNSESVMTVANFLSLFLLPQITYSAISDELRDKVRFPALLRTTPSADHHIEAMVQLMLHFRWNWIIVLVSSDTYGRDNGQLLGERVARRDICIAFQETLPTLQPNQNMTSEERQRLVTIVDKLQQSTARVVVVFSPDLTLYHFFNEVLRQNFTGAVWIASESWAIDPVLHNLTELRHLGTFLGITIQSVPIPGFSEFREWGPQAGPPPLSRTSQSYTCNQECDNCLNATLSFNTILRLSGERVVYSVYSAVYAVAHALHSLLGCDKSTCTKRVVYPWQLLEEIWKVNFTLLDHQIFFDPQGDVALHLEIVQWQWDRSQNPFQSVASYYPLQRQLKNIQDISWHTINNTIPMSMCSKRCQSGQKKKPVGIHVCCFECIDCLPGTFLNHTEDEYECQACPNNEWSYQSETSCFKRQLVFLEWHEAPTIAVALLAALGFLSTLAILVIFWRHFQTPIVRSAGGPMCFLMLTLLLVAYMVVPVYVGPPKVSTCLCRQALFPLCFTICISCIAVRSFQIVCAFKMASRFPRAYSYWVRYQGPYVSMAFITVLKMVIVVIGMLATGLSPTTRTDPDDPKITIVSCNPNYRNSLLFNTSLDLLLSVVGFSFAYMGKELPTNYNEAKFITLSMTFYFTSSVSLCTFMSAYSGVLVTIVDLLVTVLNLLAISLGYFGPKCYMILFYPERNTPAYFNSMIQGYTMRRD
T1 sequence (Q7RTX0 21-852): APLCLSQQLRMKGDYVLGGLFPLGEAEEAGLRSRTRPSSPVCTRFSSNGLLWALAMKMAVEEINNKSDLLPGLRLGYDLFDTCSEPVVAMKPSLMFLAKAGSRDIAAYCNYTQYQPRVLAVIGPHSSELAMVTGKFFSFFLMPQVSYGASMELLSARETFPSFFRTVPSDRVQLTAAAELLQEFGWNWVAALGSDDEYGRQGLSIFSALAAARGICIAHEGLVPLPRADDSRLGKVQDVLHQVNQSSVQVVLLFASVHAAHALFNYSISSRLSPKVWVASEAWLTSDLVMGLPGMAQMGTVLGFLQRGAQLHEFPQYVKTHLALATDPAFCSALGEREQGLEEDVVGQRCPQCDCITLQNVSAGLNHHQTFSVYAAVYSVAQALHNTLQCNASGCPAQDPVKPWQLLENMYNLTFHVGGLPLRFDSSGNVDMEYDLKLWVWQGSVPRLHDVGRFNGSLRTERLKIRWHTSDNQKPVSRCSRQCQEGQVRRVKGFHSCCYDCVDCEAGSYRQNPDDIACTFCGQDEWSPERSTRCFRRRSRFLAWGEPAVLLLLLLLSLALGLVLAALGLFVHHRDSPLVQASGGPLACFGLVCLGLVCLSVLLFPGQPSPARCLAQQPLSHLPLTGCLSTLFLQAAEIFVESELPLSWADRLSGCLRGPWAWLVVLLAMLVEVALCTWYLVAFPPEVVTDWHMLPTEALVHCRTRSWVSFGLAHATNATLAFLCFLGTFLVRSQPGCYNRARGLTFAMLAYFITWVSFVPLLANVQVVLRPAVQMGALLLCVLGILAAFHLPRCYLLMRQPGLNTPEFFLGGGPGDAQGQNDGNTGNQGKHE
Assay: Calcium mobilization assay in HEK293 Flp-In T-Rex-Gα15Gi3-TAS1R2/TAS1R3 cells (FLIPR, Fluo-4)
Format: cell-based
Conditions: for mode of inhibition by lactisole (shift of dose-response curve), cell experiments: combination with 10, 30, 100 μM lactisole; for time until reaching peak activity after agonist application / time where signal decreased below 50 % of the maximum signal amplitude, after agonist application: counted from agonist application at 20 sec; for time until reaching peak activity after agonist application / time where signal decreased below 50 % of the maximum signal amplitude, after agonist application / time until reaching the peak amplitude / time where signal decreased below 50 % of the maximum signal amplitude / time of signal decay back to baseline / time signal stayed above initial baseline: 1 mM Ace K, 3 mM aspartame, 10 mM cyclamate, 0.3 mM NHDC; for time until reaching the peak amplitude: including 20 sec of baseline monitoring prior to agonist application; for time where signal decreased below 50 % of the maximum signal amplitude: including 20 sec of baseline monitoring; for time of signal decay back to baseline / time signal stayed above initial baseline: raw fluorescence traces; for EC50: w/o lactisole, agonist concentrations on x-axis in mM, 3 independent experiments in duplicates, read-out: EC50 of TAS1R2/TAS1R3 activation (ΔF/F)
Experimental: For the functional characterization of the human sweet taste receptor, we used HEK293 Flp-In T-Rex cells stably transfected with the G protein chimera Gα15Gi3, and the two subunits of the human sweet taste receptor, TAS1R2 and TAS1R3 ([Galindo-Cuspinera et al., 2006]). The G protein chimera and TAS1R2 subunit are constitutively expressed, whereas the expression of the TAS1R3 subunit is inducible through addition of 0.5 µg/mL tetracycline. The experiments were done exactly as before ([Behrens et al., 2017], [Ben Abu et al., 2021]). Briefly, cells were seeded into 96-well plates (black, flat clear bottom) treated with 10 µg/mL poly-D-lysine and grown in low-glucose DMEM supplemented with 10 % fetal bovine serum, 100 U Penicillin/mL, 0.1 mg/mL Streptomycin, 2 mM L-glutamine, at 37 °C, 5 % CO2, saturated air-humidity overnight. About 24 h before the experiment tetracycline was added to induce TAS1R3 expression. Next, cells were loaded for 1 h with Fluo-4 am in the presence of 2.5 mM probenecid and washed twice with C1-buffer (130 mM NaCl, 5 mM KCl, 10 mM HEPES, 1 mM sodium pyruvate, and 2 mM CaCl2, pH 7.4). Then, plates were placed in a fluorometric imaging plate reader (FLIPR^tetra, Molecular Devices, San Jose, CA, United States) for automated compound application and measurement of fluorescence changes. Fluorescence changes of control wells not induced with tetracycline were subtracted from the data. Next, measurements were corrected for background fluorescence. Dose-response relationships of three independent experiments each performed in duplicates were calculated with SigmaPlot 14.0 software using the function f(x) = min+(max − min)/(1+(x/EC50)^nH).
TI-ratings were recorded and analyzed using the software EyeQuestion® 4.11.74 (Logic8 BV, NL) online and MS Excel 16.0 (Microsoft Corporation, USA). The statistical analysis and graphical representation were performed with GraphPad Prism 9.0 for sensory results and with SigmaPlot 14.0 for cell experiments. To evaluate the sensory dose–response effects of ascending sweetener concentration w/o lactisole, an asymmetrical five-parameter curve (Richard́s five-parameter dose–response curve) was fitted. The data are presented as means ± SEM from at least 16 single evaluations. Statistical significance between the different test compounds and concentration-dependent effects was assessed by two-way ANOVAs with Tukey post hoc test using Graph Pad Prism. The normal distribution of the data sets was checked by evaluation of the kurtosis (between −7 to + 7) and the skewness (between −3 to + 3). Equal variance was tested using Levenés test. In case the assumptions of a normal distribution and equal variance were not met, the non-parametric ANOVA on ranks (Kruskal-Wallis Test) with Dunn's post-hoc test without the calculation of interaction was applied. A Pearson product moment correlation was conducted to investigate relationships between sensory results and cell responses of the tested sweeteners.

Row | Structure (SMILES) | mode of inhibition by lactisole (shift of dose-response curve), cell experiments | time until reaching peak activity after agonist application [s] | time where signal decreased below 50 % of the maximum signal amplitude, after agonist application [s] | time until reaching the peak amplitude [s] | time where signal decreased below 50 % of the maximum signal amplitude [s] | time of signal decay back to baseline / time signal stayed above initial baseline | EC50 [mM]
1 | CC1=CC(=O)NS(=O)(=O)O1 [acesulfame K] | Allosteric inhibition | 27 | 65 | 47 | 85 | about 3 min | 0.36 ± 0.04
2 | O=S(=O)(O)NC1CCCCC1 [cyclamate] | competitive inhibition | 19 | 73 | 39 | 93 | ≥ 6 min | 1.51 ± 0.11
3 | COC(=O)[C@H](Cc1ccccc1)NC(=O)[C@@H](N)CC(=O)O [aspartame] (H-Asp-Phe-OMe) | Allosteric inhibition | 23 | 73 | 43 | 93 | ≥ 6 min | 0.33 ± 0.02
4 | COc1ccc(CCC(=O)c2c(O)cc(O[C@@H]3O[C@H](CO)[C@@H](O)[C@H](O)[C@H]3O[C@@H]3O[C@@H](C)[C@H](O)[C@@H](O)[C@H]3O)cc2O)cc1O [NHDC, neohesperidin dihydrochalcone] | competitive inhibition | 27 | 87 | 47 | 107 | ≥ 6 min | 0.05 ± 0.01
